From ChEMBL document CHEMBL5465560, “Selectivity Literature for EUbOPEN Chemogenomic Library” (2024)

Legend:
[1] = target: [Pyruvate dehydrogenase (acetyl-transferring)] kinase isozyme 1, mitochondrial (Homo sapiens, UniProt Q15118); assay: Selectivity interaction (ProQinase) EUB0000171b PDK1
[2] = target: Activin receptor type-2A (Homo sapiens) (UniProt P27037); assay: Selectivity interaction (KinomeScan (DiscoverX)) EUB0001079a ACVR2A; conditions: at 1 µM
[3] = target: Bromodomain testis-specific protein (Homo sapiens) (UniProt Q58F21); assay: Selectivity interaction (Human bromodomain panel (DSF assay)) EUB0000233b BRDT
[4] = target: SRSF protein kinase 3 (Homo sapiens) (UniProt Q9UPE1); assay: Selectivity interaction (KinomeScan (DiscoverX)) EUB0000666a SRPK3; conditions: at 10 µM
[5] = target: T1, Dual specificity mitogen-activated protein kinase kinase 7 (Homo sapiens) (UniProt O14733); conditions: at 10 µM
T1 sequence (whole entry): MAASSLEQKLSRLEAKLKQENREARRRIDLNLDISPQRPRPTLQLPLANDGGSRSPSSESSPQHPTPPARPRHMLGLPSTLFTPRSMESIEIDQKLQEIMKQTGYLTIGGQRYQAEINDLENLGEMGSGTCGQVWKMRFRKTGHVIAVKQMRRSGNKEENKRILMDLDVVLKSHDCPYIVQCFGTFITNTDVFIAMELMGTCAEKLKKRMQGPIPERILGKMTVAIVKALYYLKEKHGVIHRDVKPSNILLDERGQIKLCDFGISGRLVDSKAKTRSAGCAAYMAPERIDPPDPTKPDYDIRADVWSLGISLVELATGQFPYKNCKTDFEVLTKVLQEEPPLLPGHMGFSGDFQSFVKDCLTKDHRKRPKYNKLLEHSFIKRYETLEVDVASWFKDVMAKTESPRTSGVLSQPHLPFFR

[6] = target: T2, Mitogen-activated protein kinase kinase kinase 3 (Homo sapiens) (UniProt Q99759); assay: Selectivity interaction (ActivX KiNativ screen (kinase selectivity in THP-1 cell lysates)) EUB0000639a MAP3K3; assay type: subcellular; conditions: lysate, at 0.2 µM
T2 sequence (whole entry): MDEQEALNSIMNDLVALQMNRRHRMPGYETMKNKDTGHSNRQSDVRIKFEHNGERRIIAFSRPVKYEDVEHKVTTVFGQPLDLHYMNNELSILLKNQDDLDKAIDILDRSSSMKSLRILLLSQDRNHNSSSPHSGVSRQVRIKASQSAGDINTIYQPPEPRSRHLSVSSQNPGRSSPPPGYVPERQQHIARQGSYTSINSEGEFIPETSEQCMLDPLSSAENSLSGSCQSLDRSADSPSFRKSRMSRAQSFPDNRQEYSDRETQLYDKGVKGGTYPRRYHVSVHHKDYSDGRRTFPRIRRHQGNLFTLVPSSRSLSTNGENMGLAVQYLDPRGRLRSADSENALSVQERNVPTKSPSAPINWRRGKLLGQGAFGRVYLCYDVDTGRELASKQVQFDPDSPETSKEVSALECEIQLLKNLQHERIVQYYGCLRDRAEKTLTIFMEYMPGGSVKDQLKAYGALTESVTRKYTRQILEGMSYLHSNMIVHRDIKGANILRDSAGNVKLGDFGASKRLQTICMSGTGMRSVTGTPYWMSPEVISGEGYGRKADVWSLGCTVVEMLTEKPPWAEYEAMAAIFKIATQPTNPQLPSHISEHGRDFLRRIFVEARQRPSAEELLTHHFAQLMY

[7] = target: T3, Tyrosine-protein kinase Mer (Homo sapiens) (UniProt Q12866); assay: Selectivity interaction (Kinase panel (Invitrogen)) EUB0000639a MERTK; conditions: at 200 nM
T3 sequence (whole entry): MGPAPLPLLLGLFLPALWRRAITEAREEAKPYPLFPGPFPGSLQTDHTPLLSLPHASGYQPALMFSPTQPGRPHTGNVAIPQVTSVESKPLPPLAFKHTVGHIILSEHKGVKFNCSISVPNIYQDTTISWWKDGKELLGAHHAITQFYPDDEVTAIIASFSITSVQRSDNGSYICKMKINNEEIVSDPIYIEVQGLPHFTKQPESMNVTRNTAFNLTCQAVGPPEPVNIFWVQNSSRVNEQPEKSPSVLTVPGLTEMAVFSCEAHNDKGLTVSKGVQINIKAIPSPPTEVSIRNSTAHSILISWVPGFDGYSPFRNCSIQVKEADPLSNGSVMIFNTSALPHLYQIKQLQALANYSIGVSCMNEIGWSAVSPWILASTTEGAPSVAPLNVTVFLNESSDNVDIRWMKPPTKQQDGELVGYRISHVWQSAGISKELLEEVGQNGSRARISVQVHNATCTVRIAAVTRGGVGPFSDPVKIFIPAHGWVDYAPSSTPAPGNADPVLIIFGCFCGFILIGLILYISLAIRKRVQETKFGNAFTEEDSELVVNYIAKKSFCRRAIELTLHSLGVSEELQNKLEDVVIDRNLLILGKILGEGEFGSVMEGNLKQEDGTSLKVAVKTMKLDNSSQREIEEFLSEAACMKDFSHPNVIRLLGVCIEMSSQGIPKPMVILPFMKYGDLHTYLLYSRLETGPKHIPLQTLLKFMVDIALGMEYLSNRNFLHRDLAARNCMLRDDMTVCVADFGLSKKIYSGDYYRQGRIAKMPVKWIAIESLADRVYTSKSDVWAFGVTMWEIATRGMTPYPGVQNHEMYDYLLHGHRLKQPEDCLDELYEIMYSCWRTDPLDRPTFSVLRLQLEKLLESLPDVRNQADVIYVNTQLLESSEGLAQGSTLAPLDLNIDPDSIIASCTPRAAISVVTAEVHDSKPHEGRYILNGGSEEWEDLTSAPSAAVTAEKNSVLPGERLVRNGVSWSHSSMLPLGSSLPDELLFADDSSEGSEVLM

[8] = target: Microtubule-associated serine/threonine-protein kinase 1 (Homo sapiens) (UniProt Q9Y2H9); assay: Selectivity interaction (KinomeScan (DiscoverX)) EUB0000607a MAST1; conditions: at 10 µM
[9] = target: Serine/threonine-protein kinase 35 (Homo sapiens) (UniProt Q8TDR2); assay: Selectivity interaction (KinomeScan (DiscoverX)) EUB0000595a STK35; conditions: at 10 µM
Serine/threonine-protein kinase 35 (Homo sapiens), sequence (Q8TDR2 whole entry): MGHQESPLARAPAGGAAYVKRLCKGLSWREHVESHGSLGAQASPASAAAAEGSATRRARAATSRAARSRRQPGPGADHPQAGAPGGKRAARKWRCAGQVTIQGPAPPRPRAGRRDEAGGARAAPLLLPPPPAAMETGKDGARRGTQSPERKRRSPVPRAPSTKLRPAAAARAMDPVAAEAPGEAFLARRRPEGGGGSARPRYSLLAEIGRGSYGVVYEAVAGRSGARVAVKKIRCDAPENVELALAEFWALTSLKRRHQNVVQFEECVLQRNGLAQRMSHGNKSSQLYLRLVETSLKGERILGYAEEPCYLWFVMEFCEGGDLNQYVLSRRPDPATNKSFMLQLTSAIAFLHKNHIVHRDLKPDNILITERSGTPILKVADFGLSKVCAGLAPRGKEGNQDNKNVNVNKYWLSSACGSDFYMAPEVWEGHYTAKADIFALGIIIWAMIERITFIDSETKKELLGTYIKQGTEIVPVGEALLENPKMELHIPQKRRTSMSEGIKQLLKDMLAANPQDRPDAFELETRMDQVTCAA

SRSF protein kinase 3 (Homo sapiens), sequence (Q9UPE1 whole entry): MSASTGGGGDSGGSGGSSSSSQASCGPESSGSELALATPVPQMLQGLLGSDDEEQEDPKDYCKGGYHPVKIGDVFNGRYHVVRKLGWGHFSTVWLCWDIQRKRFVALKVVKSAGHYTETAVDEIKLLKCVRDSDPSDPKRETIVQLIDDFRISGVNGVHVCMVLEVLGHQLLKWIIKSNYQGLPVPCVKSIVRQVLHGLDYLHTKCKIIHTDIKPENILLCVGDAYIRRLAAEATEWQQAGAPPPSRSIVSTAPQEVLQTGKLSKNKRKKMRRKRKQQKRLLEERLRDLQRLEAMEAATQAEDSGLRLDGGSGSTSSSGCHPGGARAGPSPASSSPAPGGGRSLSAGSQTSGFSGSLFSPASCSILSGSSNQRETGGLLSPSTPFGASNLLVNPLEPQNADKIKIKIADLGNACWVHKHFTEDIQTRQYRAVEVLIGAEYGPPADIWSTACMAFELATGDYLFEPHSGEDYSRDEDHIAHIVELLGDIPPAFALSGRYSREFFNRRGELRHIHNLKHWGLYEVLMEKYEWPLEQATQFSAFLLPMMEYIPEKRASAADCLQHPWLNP
Microtubule-associated serine/threonine-protein kinase 1 (Homo sapiens), sequence (Q9Y2H9 whole entry, looked up): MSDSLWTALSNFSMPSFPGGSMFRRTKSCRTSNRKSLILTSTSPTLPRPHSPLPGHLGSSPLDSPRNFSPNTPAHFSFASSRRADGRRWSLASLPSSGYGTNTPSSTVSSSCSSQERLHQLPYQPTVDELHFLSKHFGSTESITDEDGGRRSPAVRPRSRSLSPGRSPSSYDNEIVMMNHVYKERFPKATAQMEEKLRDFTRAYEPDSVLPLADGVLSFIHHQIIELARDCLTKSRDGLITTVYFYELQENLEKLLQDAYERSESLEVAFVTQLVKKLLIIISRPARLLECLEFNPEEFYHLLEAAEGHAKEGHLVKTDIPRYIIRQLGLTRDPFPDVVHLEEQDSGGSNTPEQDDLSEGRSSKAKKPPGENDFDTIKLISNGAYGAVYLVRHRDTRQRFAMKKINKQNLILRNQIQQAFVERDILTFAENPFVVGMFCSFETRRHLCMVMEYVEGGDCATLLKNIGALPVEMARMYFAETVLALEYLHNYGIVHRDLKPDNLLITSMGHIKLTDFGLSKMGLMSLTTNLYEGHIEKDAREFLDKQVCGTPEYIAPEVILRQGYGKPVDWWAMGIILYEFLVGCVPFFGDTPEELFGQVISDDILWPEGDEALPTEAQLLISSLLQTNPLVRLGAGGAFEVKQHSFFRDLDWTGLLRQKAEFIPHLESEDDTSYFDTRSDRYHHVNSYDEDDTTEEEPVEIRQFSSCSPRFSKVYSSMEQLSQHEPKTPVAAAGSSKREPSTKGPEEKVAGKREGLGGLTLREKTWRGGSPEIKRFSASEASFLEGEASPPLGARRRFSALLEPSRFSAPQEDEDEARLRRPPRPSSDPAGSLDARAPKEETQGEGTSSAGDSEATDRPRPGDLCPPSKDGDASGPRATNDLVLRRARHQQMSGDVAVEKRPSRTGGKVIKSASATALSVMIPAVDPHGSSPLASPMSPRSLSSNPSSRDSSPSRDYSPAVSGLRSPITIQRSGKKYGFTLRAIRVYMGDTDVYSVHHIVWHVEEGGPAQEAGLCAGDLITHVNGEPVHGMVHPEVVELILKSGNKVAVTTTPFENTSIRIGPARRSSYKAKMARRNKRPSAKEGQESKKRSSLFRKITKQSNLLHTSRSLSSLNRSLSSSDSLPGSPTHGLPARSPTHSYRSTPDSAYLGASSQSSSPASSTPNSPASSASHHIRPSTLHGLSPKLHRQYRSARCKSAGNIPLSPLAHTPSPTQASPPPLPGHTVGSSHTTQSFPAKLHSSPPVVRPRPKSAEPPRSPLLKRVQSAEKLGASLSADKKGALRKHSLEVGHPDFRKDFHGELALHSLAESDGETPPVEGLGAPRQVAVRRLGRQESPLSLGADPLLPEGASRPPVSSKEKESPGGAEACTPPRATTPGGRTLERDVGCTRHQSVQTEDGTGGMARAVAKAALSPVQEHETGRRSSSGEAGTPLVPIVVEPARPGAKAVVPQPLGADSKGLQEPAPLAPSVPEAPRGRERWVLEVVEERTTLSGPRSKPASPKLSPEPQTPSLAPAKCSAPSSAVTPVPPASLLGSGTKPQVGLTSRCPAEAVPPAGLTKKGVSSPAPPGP
Activin receptor type-2A (Homo sapiens), sequence (P27037 whole entry): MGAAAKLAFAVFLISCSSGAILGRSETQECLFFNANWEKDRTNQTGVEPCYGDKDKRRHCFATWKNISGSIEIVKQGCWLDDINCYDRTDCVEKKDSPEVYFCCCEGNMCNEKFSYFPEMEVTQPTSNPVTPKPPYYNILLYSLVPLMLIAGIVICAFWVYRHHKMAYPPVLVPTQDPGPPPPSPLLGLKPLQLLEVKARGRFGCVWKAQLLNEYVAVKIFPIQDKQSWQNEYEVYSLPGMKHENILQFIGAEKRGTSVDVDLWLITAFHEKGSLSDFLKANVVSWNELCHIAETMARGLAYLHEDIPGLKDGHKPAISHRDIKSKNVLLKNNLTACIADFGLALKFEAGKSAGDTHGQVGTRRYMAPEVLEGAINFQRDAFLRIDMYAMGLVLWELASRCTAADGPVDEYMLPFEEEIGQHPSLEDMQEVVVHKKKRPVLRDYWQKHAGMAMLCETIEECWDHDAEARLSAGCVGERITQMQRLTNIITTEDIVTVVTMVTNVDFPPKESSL

## C=CC(=O)Nc1cccc(C(=O)Nc2ccc(Nc3cc(-c4[nH]c(SC)nc4C)ccn3)cc2)c1
[1]; at 1 µM
  % of control: 74%
[1]; at 5 µM
  % of control: 39%

## Nc1cnc(N2CCc3cc(S(=O)(=O)Nc4c(F)cc(Cl)cc4F)cc(N4CCCC4=O)c32)nc1 [TP-020n]
[2]
  % of control: 67%

## CN(C)CCCOc1ccc(-c2cc(NCCCn3cccn3)nc(S(C)(=O)=O)n2)cc1
[3]
  dTM: < 2 K

## O=C(NOC[C@H](O)CO)c1ccc(F)c(F)c1Nc1ccc(I)cc1F
[4]
  % of control: 100%

## Cc1cc([C@@H](C)Nc2ccccc2C(=O)O)c2nc(N3CCOCC3)cc(=O)n2c1 [AZD-6482]
[5]
  % of control: 90%

## CC[C@@H]1[C@H](F)C(=O)N[C@@H]1COc1nccc2cc(C(N)=O)c(OC)cc12 [ZIMLOVISERTIB]
[6]
  % of inhibition: -0.9%
[7]
  % of inhibition: 3.13%

## CNC(=O)Nc1ccc(-c2nc(N3CC4CCC(C3)O4)c3cnn(C4CCC5(CC4)OCCO5)c3n2)cc1
[8]
  % of control: 95%

## COCC(=O)NC/C=C/c1ccc2ncnc(Nc3ccc(Oc4ccc(C)nc4)c(C)c3)c2c1 [CP-724714]
[9]
  % of control: 65%
